{"source": "patent US8524766B2", "about": "“Modulators of dopamine neurotransmission” (NSAB, Filial af Neurosearch Sweden AB, Sverige, priority 2008, dated 2013)", "key": {"[1]": {"test_system": "DOPAC (3,4-dihydroxyphenylacetic acid) in the rat striatum", "experiment": "Increase of DOPAC in the rat striatum after systemic administration (in vivo neurochemistry)", "conditions": "estimated ED50 on increase of DOPAC in rat striatum, systemic administration (s.c.), curve fitting; for ED50: sc", "text": "After the behavioural activity sessions, the rats are decapitated and their brains rapidly taken out and put on an ice-cold petri-dish. The limbic forebrain, the striatum, the frontal cortex and the remaining hemispheral parts of each rat are dissected and frozen. Each brain part is subsequently analyzed with respect to its content of monoamines and their metabolites.\nThe monoamine transmitter substances (NA (noradrenaline), DA (dopamine), 5-HT (serotonin)) as well as their amine (NM (normethanephrine), 3-MT (3-methoxytyramine)) and acid (DOPAC (3,4-dihydroxyphenylacetic acid), 5-HIAA (5-hydroxyindoleacetic acid), HVA (homovanillic acid)) metabolites are quantified in brain tissue homogenates by HPLC separations and electrochemical detection.\nThe analytical method is based on two chromatographic separations dedicated for amines or acids. Two chromatographic systems share a common auto injector with a 10-port valve and two sample loops for simultaneous injection on the two systems. Both systems are equipped with a reverse phase column (Luna C18(2), dp 3 μm, 50*2 mm i.d., Phenomenex) and electrochemical detection is accomplished at two potentials on glassy carbon electrodes (MF-1000, Bioanalytical Systems, Inc.). The column effluent is passed via a T-connection to the detection cell or to a waste outlet. This is accomplished by two solenoid valves, which block either the waste or detector outlet. By preventing the chromatographic front from reaching the detector, better detection conditions are achieved. The aqueous mobile phase (0.4 ml/min) for the acid system contains citric acid 14 mM, sodium citrate 10 mM, MeOH 15% (v/v) and EDTA 0.1 mM. Detection potentials relative to Ag/AgCl reference are 0.45 and 0.60V. The aqueous ion pairing mobile phase (0.5 ml/min) for the amine system contains citric acid 5 mM, sodium citrate 10 mM, MeOH 9% (v/v), MeCN 10.5% v/v), decane sulfonic acid 0.45 mM, and EDTA 0.1 mM. Detection potentials relative to Ag/AgCl reference are 0.45 and 0.65V.\nED50 values for the increase of DOPAC in striatum are calculated by curve fitting."}, "drug-naive rats": {"test_system": "drug-naive rats", "experiment": "Locomotor activity in drug-naive rats (in vivo behaviour)", "parameters": "species or system rat", "conditions": "recorded for 60 minutes, ± SEM", "text": "Photobeam sensors are spaced 2.5 cm apart."}}, "data": [{"smiles": "CCCNC[C@@H]1COc2ccc(S(C)(=O)=O)cc2O1", "note": "[Example 2, N-{[(2R)-7-(METHYLSULFONYL)-2,3-DIHYDRO-1,4-BENZODIOXIN-2-YL]METHYL}-PROPAN-1-AMINE]", "values": [{"measurement": "ED50", "setting": "[1]", "value": 47, "unit": "µmol/kg"}, {"measurement": "Locomotor activity", "setting": "drug-naive rats; 3.7 μmol/kg", "value": "10728 ± 1557", "unit": "counts/60 min"}, {"measurement": "Locomotor activity", "setting": "drug-naive rats; 11 μmol/kg", "value": "10346 ± 857", "unit": "counts/60 min"}, {"measurement": "Locomotor activity", "setting": "drug-naive rats; 33 μmol/kg", "value": "11427 ± 1559", "unit": "counts/60 min"}]}, {"smiles": "CCCNC[C@H]1COc2ccc(S(C)(=O)=O)cc2O1", "note": "[Example 3, N-{[(2S)-7-(METHYLSULFONYL)-2,3-DIHYDRO-1,4-BENZODIOXIN-2-YL]METHYL}-PROPAN-1-AMINE]", "values": [{"measurement": "ED50", "setting": "[1]", "value": 6.1, "unit": "µmol/kg"}, {"measurement": "Locomotor activity", "setting": "drug-naive rats; 3.7 μmol/kg", "value": "10297 ± 860", "unit": "counts/60 min"}, {"measurement": "Locomotor activity", "setting": "drug-naive rats; 11 μmol/kg", "value": "8973 ± 2186", "unit": "counts/60 min"}, {"measurement": "Locomotor activity", "setting": "drug-naive rats; 33 μmol/kg", "value": "6830 ± 128", "unit": "counts/60 min"}]}, {"smiles": "CS(=O)(=O)c1ccc2c(c1)O[C@@H](CN1CCCCC1)CO2", "note": "[Example 7, 1-{[(2S)-7-(METHYLSULFONYL)-2,3-DIHYDRO-1,4-BENZODIOXIN-2-YL]METHYL}PIPERIDINE]", "values": [{"measurement": "ED50", "setting": "[1]", "value": 12, "unit": "µmol/kg"}, {"measurement": "Locomotor activity", "setting": "drug-naive rats; 3.7 μmol/kg", "value": "7905 ± 656", "unit": "counts/60 min"}, {"measurement": "Locomotor activity", "setting": "drug-naive rats; 11 μmol/kg", "value": "5469 ± 734", "unit": "counts/60 min"}, {"measurement": "Locomotor activity", "setting": "drug-naive rats; 33 μmol/kg", "value": "3334 ± 780", "unit": "counts/60 min"}]}, {"smiles": "CCCN(CCC)CC1COc2ccc(S(C)(=O)=O)cc2O1", "note": "(stereo not shown) [Example 16, N-{[7-(METHYLSULFONYL)-2,3-DIHYDRO-1,4-BENZODIOXIN-2-YL]METHYL}-N-PROPYLPROPAN-1-AMINE]", "values": [{"measurement": "ED50", "setting": "[1]", "value": 29, "unit": "µmol/kg"}, {"measurement": "Locomotor activity", "setting": "drug-naive rats; 3.7 μmol/kg", "value": "13645 ± 3301", "unit": "counts/60 min"}, {"measurement": "Locomotor activity", "setting": "drug-naive rats; 11 μmol/kg", "value": "11807 ± 2628", "unit": "counts/60 min"}, {"measurement": "Locomotor activity", "setting": "drug-naive rats; 33 μmol/kg", "value": "18642 ± 2454", "unit": "counts/60 min"}]}, {"smiles": "CCNC[C@H]1COc2c(F)cc(S(C)(=O)=O)cc2O1", "note": "[Example 19, N-{[(2S)-5-FLUORO-7-(METHYLSULFONYL)-2,3-DIHYDRO-1,4-BENZODIOXIN-2-YL]METHYL}ETHANAMINE]", "values": [{"measurement": "ED50", "setting": "[1]", "value": "< 3.7", "unit": "µmol/kg"}, {"measurement": "Locomotor activity", "setting": "drug-naive rats; 3.7 μmol/kg", "value": "6123 ± 710", "unit": "counts/60 min"}, {"measurement": "Locomotor activity", "setting": "drug-naive rats; 11 μmol/kg", "value": "3191 ± 387", "unit": "counts/60 min"}, {"measurement": "Locomotor activity", "setting": "drug-naive rats; 33 μmol/kg", "value": "1936 ± 370", "unit": "counts/60 min"}]}, {"smiles": "CCCNC[C@H]1COc2c(F)cc(S(C)(=O)=O)cc2O1", "note": "[Example 21, N-{[(2S)-5-FLUORO-7-(METHYLSULFONYL)-2,3-DIHYDRO-1,4-BENZODIOXIN-2-YL]METHYL}PROPAN-1-AMINE]", "values": [{"measurement": "ED50", "setting": "[1]", "value": 6.8, "unit": "µmol/kg"}, {"measurement": "Locomotor activity", "setting": "drug-naive rats; 3.7 μmol/kg", "value": "12080 ± 1292", "unit": "counts/60 min"}, {"measurement": "Locomotor activity", "setting": "drug-naive rats; 11 μmol/kg", "value": "8930 ± 631", "unit": "counts/60 min"}, {"measurement": "Locomotor activity", "setting": "drug-naive rats; 33 μmol/kg", "value": "4430 ± 775", "unit": "counts/60 min"}]}, {"smiles": "CCCNCC1CCc2ccc(S(C)(=O)=O)cc2O1", "note": "(stereo not shown) [Example 23, N-{[7-(METHYLSULFONYL)-3,4-DIHYDRO-2H-CHROMEN-2-YL]METHYL}-N—PROPAN-1-AMINE]", "values": [{"measurement": "ED50 DOPAC*", "setting": "[1]", "value": 14, "unit": "µmol/kg"}, {"measurement": "Locomotor activity", "setting": "drug-naive rats; 3.7 μmol/kg", "value": "9551 ± 1284", "unit": "counts/60 min"}, {"measurement": "Locomotor activity", "setting": "drug-naive rats; 11 μmol/kg", "value": "9722 ± 1247", "unit": "counts/60 min"}, {"measurement": "Locomotor activity", "setting": "drug-naive rats; 33 μmol/kg", "value": "7700 ± 1039", "unit": "counts/60 min"}]}]}
